Experimental data published in patent US20100298141A1, “SUBSTITUTED PYRIDINE N-OXIDE HERBICIDES” (E. I. DU PONT DE NEMOURS AND COMPANY, priority 2007, published 2010).

Columns and labels:
[1] = test system: crabgrass; experiment: Test A pre-/postemergence greenhouse test; type: in vivo, Digitaria sanguinalis; conditions: for Plant response rating, Crabgrass, Large: 0 to 100 scale where 0 is no effect and 100 is complete control; for Crabgrass, Large plant response rating: 0 to 100 scale
Summary of the method: (§1)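 Visual injury ratings, made relative to untreated controls roughly ten days after treatment, cover both preemergence and postemergence application. Compounds in a surfactant-containing non-phytotoxic solvent were sprayed onto the soil surface after sowing and, simultaneously, onto young plants at the one- to two-leaf stage.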

[2] = test system: Goosegrass; experiment: Test C pre-/postemergence test; type: in vivo, Eleusin indica
Summary of the method: (§2)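 Compounds in a non-phytotoxic solvent with surfactant applied preemergence to seeded pots and, at the same time, postemergence to plants 2–18 cm tall (1- to 4-leaf stage). Paddy tests: pots flooded to 3 cm, compound applied into the water, depth held throughout.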

[3] = test system: soybean; experiment: Test C pre-/postemergence test; type: in vivo, Glycine max
Summary of the method: as §2

[4] = test system: velvetleaf; experiment: Test A pre-/postemergence greenhouse test; type: in vivo, Abutilon theophrasti; conditions: for Plant response rating, Velvetleaf: 0 to 100 scale where 0 is no effect and 100 is complete control; for Velvetleaf plant response rating: 0 to 100 scale
Summary of the method: as §1

[5] = test system: barnyardgrass; experiment: Test A pre-/postemergence greenhouse test; type: in vivo, Echinochloa crus-galli; conditions: for Plant response rating, Barnyardgrass: 0 to 100 scale where 0 is no effect and 100 is complete control; for Barnyardgrass plant response rating: 0 to 100 scale
Summary of the method: as §1

[6] = test system: umbrella sedge; experiment: Test C flooded paddy test; type: in vivo, Cyperus difformis; conditions: Flood
Summary of the method: (§3)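 Test compounds are applied straight into paddy water held 3 cm above the soil surface, with that flood maintained for the whole test. After 13 to 15 days in the greenhouse, each species is scored visually relative to controls.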

[7] = test system: barnyardgrass; experiment: Test C flooded paddy test; type: in vivo, Echinochloa crus-galli; conditions: Flood
Summary of the method: as §3

[8] = test system: johnsongrass; experiment: Test C pre-/postemergence test; type: in vivo, Sorghum halepense
Summary of the method: as §2

[9] = test system: pigweed; experiment: Test C pre-/postemergence test; type: in vivo, Amaranthus retroflexus
Summary of the method: as §2

[10] = test system: corn; experiment: Test C pre-/postemergence test; type: in vivo, Zea mays
Summary of the method: as §2

[11] = test system: crabgrass; experiment: Test C pre-/postemergence test; type: in vivo, Digitaria sanguinalis
Summary of the method: as §2

[12] = test system: Italian ryegrass; experiment: Test C pre-/postemergence test; type: in vivo, Lolium multiflorum
Summary of the method: as §2

[13] = test system: yellow nutsedge; experiment: Test C pre-/postemergence test; type: in vivo, Cyperus esculentus
Summary of the method: as §2

[14] = test system: corn; experiment: Test A pre-/postemergence greenhouse test; type: in vivo, Zea mays; conditions: for Plant response rating, Corn: 0 to 100 scale where 0 is no effect and 100 is complete control; for Corn plant response rating: 0 to 100 scale
Summary of the method: as §1

[15] = test system: green foxtail; experiment: Test C pre-/postemergence test; type: in vivo, Setaria viridis
Summary of the method: as §2

[16] = test system: bermudagrass; experiment: Test C pre-/postemergence test; type: in vivo, Cynodon dactylon
Summary of the method: as §2

[17] = test system: duck salad; experiment: Test C flooded paddy test; type: in vivo, Heteranthera limosa; conditions: Flood
Summary of the method: as §3

[18] = Postemergence, 500 g ai/ha, 0 is no effect, 100 is complete control
[19] = Preemergence, 125 g ai/ha, 0 no effect, 100 complete control
[20] = 62 g ai/ha, Preemergence, scale 0 to 100
[21] = 125 g ai/ha, preemergence, scale 0 (no effect) to 100 (complete control)
[22] = Postemergence, 62 g ai/ha, scale 0 to 100, 0 no effect, 100 complete control
[23] = Postemergence, 125 g ai/ha, scale 0 to 100, 0 no effect, 100 complete control
[24] = Postemergence, 250 g ai/ha, scale 0 to 100, 0 no effect, 100 complete control
[25] = Preemergence, 31 g ai/ha, scale 0 to 100 (0 no effect, 100 complete control)
[26] = preemergence, 250 g ai/ha, scale 0 (no effect) to 100 (complete control)
[27] = 62 g ai/ha, scale 0 to 100 (0 no effect, 100 complete control)
[28] = 250 g ai/ha, scale 0 to 100, 0 no effect, 100 complete control, 13 to 15 days

## CCn1nc(C(F)(F)F)c(C[S+]([O-])c2cccc[n+]2[O-])c1OCC(F)(F)F (racemic) [Compound 65]
[1]; Postemergence, 125 g ai/ha
  Plant response rating, Crabgrass, Large: 80
[1]; [18]
  Crabgrass, Large plant response rating: 90
[1]; [19]
  Crabgrass, Large plant response rating: 90
[1]; Preemergence, 500 g ai/ha
  Plant response rating, Crabgrass, Large: 100
[2]; [20]
  Goosegrass plant response rating: 100
[2]; [21]
  Goosegrass plant response rating: 100
[2]; Postemergence, 31 g ai/ha
  Plant response rating (0 to 100), Goosegrass: 0
[2]; [22]
  Plant response rating, Goosegrass: 0
[2]; [23]
  Plant response rating, Goosegrass: 0
[2]; [24]
  Plant response rating, Goosegrass: 70
[2]; [25]
  Plant response rating, Goosegrass: 100
[2]; [26]
  Goosegrass plant response rating: 100
[3]; Postemergence, 31 g ai/ha
  Plant response rating (0 to 100), Soybean: 20
[3]; Postemergence, 62 g ai/ha
  Plant response rating (0 to 100), Soybean: 50
[3]; [23]
  Plant response rating, Soybean: 60
[3]; [24]
  Plant response rating, Soybean: 90
[3]; [25]
  Plant response rating, Soybean: 5
[4]; Postemergence, 125 g ai/ha
  Plant response rating, Velvetleaf: 80
[4]; [18]
  Velvetleaf plant response rating: 90
[4]; [19]
  Velvetleaf plant response rating: 100
[4]; Preemergence, 500 g ai/ha
  Plant response rating, Velvetleaf: 100
[5]; Postemergence, 125 g ai/ha
  Plant response rating, Barnyardgrass: 90
[5]; [18]
  Barnyardgrass plant response rating: 90
[5]; [19]
  Barnyardgrass plant response rating: 80
[5]; Preemergence, 500 g ai/ha
  Plant response rating, Barnyardgrass: 100
[6]; [27]
  Plant response rating, Sedge, Umbrella: 60
[6]; [28]
  Plant response rating, Sedge, Umbrella: 100
[7]; [27]
  Plant response rating, Barnyardgrass: 55
[7]; [28]
  Plant response rating, Barnyardgrass: 85
[8]; [20]
  Johnsongrass plant response rating: 100
[8]; [21]
  Johnsongrass plant response rating: 100
[8]; Postemergence, 31 g ai/ha
  Plant response rating (0 to 100), Johnsongrass: 0
[8]; [22]
  Plant response rating, Johnsongrass: 0
[8]; [23]
  Plant response rating, Johnsongrass: 0
[8]; [24]
  Plant response rating, Johnsongrass: 0
[8]; [25]
  Plant response rating, Johnsongrass: 98
[8]; [26]
  Johnsongrass plant response rating: 100
[9]; [20]
  Pigweed plant response rating: 85
[9]; Postemergence, 31 g ai/ha
  Plant response rating (0 to 100), Pigweed: 0
[9]; Postemergence, 62 g ai/ha
  Plant response rating (0 to 100), Pigweed: 0
[9]; [23]
  Plant response rating, Pigweed: 0
[9]; [24]
  Plant response rating, Pigweed: 5
[9]; [25]
  Plant response rating, Pigweed: 85
[9]; [26]
  Pigweed plant response rating: 100
[10]; [20]
  Corn plant response rating: 100
[10]; [21]
  Corn plant response rating: 100
[10]; Postemergence, 31 g ai/ha
  Plant response rating (0 to 100), Corn: 0
[10]; [22]
  Plant response rating, Corn: 0
[10]; [23]
  Plant response rating, Corn: 50
[10]; [25]
  Plant response rating, Corn: 70
[10]; [26]
  Corn plant response rating: 100
[11]; [20]
  Crabgrass, Large plant response rating: 100
[11]; [21]
  Crabgrass, Large plant response rating: 100
[11]; Postemergence, 31 g ai/ha
  Plant response rating (0 to 100), Crabgrass, Large: 0
[11]; [22]
  Plant response rating, Crabgrass, Large: 0
[11]; [23]
  Plant response rating, Crabgrass, Large: 0
[11]; [24]
  Plant response rating, Crabgrass, Large: 60
[11]; [25]
  Plant response rating, Crabgrass, Large: 60
[11]; [26]
  Crabgrass, Large plant response rating: 100
[12]; [20]
  Ryegrass, Italian plant response rating: 100
[12]; [21]
  Ryegrass, Italian plant response rating: 100
[12]; Postemergence, 31 g ai/ha
  Plant response rating (0 to 100), Ryegrass, Italian: 0
[12]; Postemergence, 62 g ai/ha
  Plant response rating (0 to 100), Ryegrass, Italian: 0
[12]; [23]
  Plant response rating, Ryegrass, Italian: 90
[12]; [24]
  Plant response rating, Ryegrass, Italian: 95
[12]; [25]
  Plant response rating, Ryegrass, Italian: 50
[12]; [26]
  Ryegrass, Italian plant response rating: 100
[13]; [20]
  Nutsedge, Yellow plant response rating: 40
[13]; [21]
  Nutsedge, Yellow plant response rating: 50
[13]; Postemergence, 31 g ai/ha
  Plant response rating (0 to 100), Nutsedge, Yellow: 0
[13]; [22]
  Plant response rating, Nutsedge, Yellow: 0
[13]; [23]
  Plant response rating, Nutsedge, Yellow: 0
[13]; [24]
  Plant response rating, Nutsedge, Yellow: 0
[13]; [25]
  Plant response rating, Nutsedge, Yellow: 0
[13]; [26]
  Nutsedge, Yellow plant response rating: 60
[14]; Postemergence, 125 g ai/ha
  Plant response rating, Corn: 70
[14]; [18]
  Corn plant response rating: 80
[14]; [19]
  Corn plant response rating: 40
[14]; Preemergence, 500 g ai/ha
  Plant response rating, Corn: 80
[15]; [20]
  Foxtail, Green plant response rating: 100
[15]; [21]
  Foxtail, Green plant response rating: 100
[15]; Postemergence, 31 g ai/ha
  Plant response rating (0 to 100), Foxtail, Green: 5
[15]; [22]
  Plant response rating, Foxtail, Green: 50
[15]; [23]
  Plant response rating, Foxtail, Green: 80
[15]; [24]
  Plant response rating, Foxtail, Green: 90
[15]; [25]
  Plant response rating, Foxtail, Green: 90
[15]; [26]
  Foxtail, Green plant response rating: 100
[16]; 62 g ai/ha, Preemergence, scale 0 to 100 (0 no effect, 100 complete control)
  Bermudagrass plant response rating: 100
[16]; [21]
  Bermudagrass plant response rating: 100
[16]; Postemergence, 31 g ai/ha
  Plant response rating (0 to 100), Bermudagrass: 0
[16]; [22]
  Plant response rating, Bermudagrass: 0
[16]; [23]
  Plant response rating, Bermudagrass: 70
[16]; [24]
  Plant response rating, Bermudagrass: 90
[16]; [25]
  Plant response rating, Bermudagrass: 100
[16]; [26]
  Bermudagrass plant response rating: 100
[17]; [27]
  Plant response rating, Ducksalad: 30
[17]; [28]
  Plant response rating, Ducksalad: 100
